These results are taken from PubChem BioAssay (NCI).

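96-well plates; 48 h exposure; 5 concentrations. Endpoints by linear interpolation between flanking doses. Not reached: highest tested concentration assigned. TGI: concentration producing complete growth inhibition.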 A value given as a limit tells only on which side of the number the result lay.

Among the test systems are NCI-H226 lung; SK-MEL-28 melanoma; OVCAR-8 ovarian; SNB-19 CNS; MALME-3M melanoma; TK-10 renal; SN12C renal; NCI-H23 lung; MCF7 breast; 786-0 renal.
Assay in all cases: inhibition of tumour cell growth, NCI panel, 48 h

Take `C[C@H]1CCC/C=C/[C@@H]2C[C@H](OC3OC(CO)C(O)C(O)C3O)C[C@H]2[C@H](O)/C=C/C(=O)O1` (stereo not given in full): the TGI with NCI-H226 lung is over 100 µM; with SK-MEL-28 melanoma, 87.3 µM; in the experiment on OVCAR-8 ovarian, over 100 µM; in the experiment on SNB-19 CNS it was over 100 µM; in the experiment with MALME-3M melanoma, 33.1 µM; in the experiment on TK-10 renal, over 100 µM. Also, the TGI in the experiment with SN12C renal, with NCI-H23 lung, with MCF7 breast and with 786-0 renal was over 100 µM in each case.

With `CC(C)OC(=O)C(NC(=O)C(CC(=O)OCc1ccccc1)NC(=O)OCc1ccccc1)NC(=O)C1C(C)(C)CCC1(C)C` (stereo not given), the TGI in the experiment on NCI-H226 lung was 22.8 µM; in the experiment on SK-MEL-28 melanoma, over 56.2 µM; in the experiment on OVCAR-8 ovarian it was 4.19 µM; in the experiment with SNB-19 CNS it was 16.1 µM; in the experiment on MALME-3M melanoma it was 44.9 µM; in the experiment with TK-10 renal, 34.5 µM. Also, the TGI was 15.1 µM in the experiment with SN12C renal, 23.9 µM in the experiment with NCI-H23 lung, 28.4 µM in the experiment with MCF7 breast and 5.3 µM in the experiment on 786-0 renal.

In the case of `Cn1c(CO)ccc1-c1ccc(-c2ccc(CO)[se]2)[se]1`, the TGI is 2.56 µM in the experiment with NCI-H226 lung; over 100 µM in the experiment with SK-MEL-28 melanoma; 55.6 µM in the experiment on OVCAR-8 ovarian; over 100 µM with SNB-19 CNS; 17.7 µM in the experiment on MALME-3M melanoma; over 78.1 µM in the experiment on TK-10 renal. Further, the TGI in the experiment with SN12C renal is over 100 µM; in the experiment on NCI-H23 lung, over 74.8 µM; in the experiment on MCF7 breast, over 40 µM; with 786-0 renal it was over 76 µM.

As to `CCc1c(O)nc(Nc2nc3ccccc3[nH]2)[nH]c1=O`, the TGI with NCI-H226 lung, in the experiment on SK-MEL-28 melanoma, in the experiment on OVCAR-8 ovarian, in the experiment with SNB-19 CNS, in the experiment with MALME-3M melanoma and with TK-10 renal was over 100 µM in each case. The TGI in the experiment with SN12C renal, in the experiment with NCI-H23 lung, in the experiment with MCF7 breast and with 786-0 renal was over 100 µM throughout.

As for `C/C(=N\NC(=S)NC(C)(C)C)c1nc2ncccc2[nH]1`, the TGI was 13.9 µM with NCI-H226 lung; over 100 µM in the experiment with SK-MEL-28 melanoma; over 100 µM with OVCAR-8 ovarian; over 90.5 µM with SNB-19 CNS; 60.4 µM in the experiment with MALME-3M melanoma; over 100 µM in the experiment with TK-10 renal. Also, the TGI in the experiment with SN12C renal, with NCI-H23 lung, in the experiment on MCF7 breast and in the experiment with 786-0 renal was over 100 µM in each case.

For `C/C(=N/NC(=S)Nc1ccc(C)cc1)c1ccccn1`, the TGI in the experiment with NCI-H226 lung came out at 2.6 µM; in the experiment on SK-MEL-28 melanoma, 24.3 µM; in the experiment on OVCAR-8 ovarian, 7.51 µM; in the experiment on SNB-19 CNS, 20.6 µM; in the experiment on MALME-3M melanoma it was 8.71 µM; in the experiment with TK-10 renal, 6.77 µM. The TGI came to 7.65 µM in the experiment on SN12C renal, 16.1 µM in the experiment with NCI-H23 lung, 16.6 µM in the experiment on MCF7 breast and 12.7 µM with 786-0 renal.

On to `C[n+]1c2ccccc2n2c3ccccc3c(NCCCn3ccnc3)c(C#N)c21`, for which the TGI with NCI-H226 lung was 9.11 µM; in the experiment on SK-MEL-28 melanoma, 13.3 µM; in the experiment with OVCAR-8 ovarian, 8.43 µM; in the experiment on SNB-19 CNS, over 31.2 µM; in the experiment on MALME-3M melanoma, 4.5 µM; in the experiment with TK-10 renal, 59.5 µM. In addition, the TGI is 4.09 µM with SN12C renal, 9.13 µM in the experiment with NCI-H23 lung, over 34 µM in the experiment with MCF7 breast and 10.6 µM with 786-0 renal.

For `COC(=O)CCC(C)[C@H]1CCC2C3CC[C@@H]4CC5(CC[C@]4(C)C3C[C@H](OC(C)=O)[C@@]21C)OOC1(CCCCC1)OO5` (stereo not given in full), the TGI in the experiment on NCI-H226 lung is over 100 µM; in the experiment on SK-MEL-28 melanoma, over 100 µM; with OVCAR-8 ovarian, over 100 µM; in the experiment on SNB-19 CNS it was over 100 µM; with MALME-3M melanoma, 60.3 µM; in the experiment with TK-10 renal it was over 100 µM. The TGI in the experiment with SN12C renal, with NCI-H23 lung, in the experiment with MCF7 breast and with 786-0 renal was over 100 µM each time.

`O=c1[nH]nc(Nc2ccc(Cl)cc2)c2nnn(C3CCCCC3)c12`: the TGI in the experiment with NCI-H226 lung is over 100 µM; in the experiment with SK-MEL-28 melanoma, over 100 µM; in the experiment with OVCAR-8 ovarian, 34.3 µM; in the experiment with SNB-19 CNS, over 100 µM; in the experiment on MALME-3M melanoma, over 100 µM; in the experiment on TK-10 renal it was over 100 µM. Also, the TGI in the experiment with SN12C renal is over 100 µM; with NCI-H23 lung, over 100 µM; in the experiment with MCF7 breast, over 100 µM; with 786-0 renal, 31.4 µM.

For `CC(=O)OC12c3ccccc3C(c3ccccc31)C1C(=O)N(N=C(C)C)C(=O)C12` (stereo not given), the TGI in the experiment on NCI-H226 lung, in the experiment on SK-MEL-28 melanoma, in the experiment on OVCAR-8 ovarian, in the experiment on SNB-19 CNS, with MALME-3M melanoma and in the experiment with TK-10 renal was over 100 µM in each case. The TGI in the experiment with SN12C renal, in the experiment with NCI-H23 lung, in the experiment on MCF7 breast and with 786-0 renal was over 100 µM in each case.

For the compound `CCCCCCCCCCCC1=C(O)C(=O)C(CC2=C(O)C(=O)C(CCCCCCCCCCC)=C(O)C2=O)=C(O)C1=O`, the TGI in the experiment on NCI-H226 lung was over 100 µM; with SK-MEL-28 melanoma, over 100 µM; in the experiment on OVCAR-8 ovarian, over 100 µM; with SNB-19 CNS it was 73.3 µM; in the experiment on MALME-3M melanoma, over 100 µM; in the experiment with TK-10 renal it was over 100 µM. Further, the TGI with SN12C renal, in the experiment on NCI-H23 lung, in the experiment on MCF7 breast and in the experiment on 786-0 renal was over 100 µM each time.

As to `CCCCCCCCCCCCCCCCNc1nc(=O)n(C2OC(C)C(O)C2O)cc1F` (stereo not given), the TGI in the experiment on NCI-H226 lung was 40.6 µM; in the experiment with SK-MEL-28 melanoma, 37.5 µM; with OVCAR-8 ovarian, 52.6 µM; with SNB-19 CNS, 39.7 µM; with MALME-3M melanoma, 40.7 µM; with TK-10 renal, 30.6 µM. Besides, the TGI with SN12C renal was found to be 40.6 µM; in the experiment on NCI-H23 lung it was 32.7 µM; in the experiment with MCF7 breast it was 33 µM; in the experiment on 786-0 renal, 35.6 µM.

On to `O=c1[nH]c2c(Nc3c4ccccc4nc4ccccc34)c([N+](=O)[O-])c(Nc3c4ccccc4nc4ccccc34)c([N+](=O)[O-])c2[nH]1`, for which the TGI in the experiment with NCI-H226 lung was 6.3 µM; in the experiment on SK-MEL-28 melanoma it was 11.3 µM; in the experiment on OVCAR-8 ovarian, 12.6 µM; with SNB-19 CNS, 13.7 µM; in the experiment with MALME-3M melanoma, 3.33 µM; in the experiment with TK-10 renal, over 22.5 µM. Moreover, the TGI in the experiment with SN12C renal was 8.8 µM; in the experiment with NCI-H23 lung, 2.74 µM; with MCF7 breast it was 10.2 µM; in the experiment on 786-0 renal, over 28.4 µM.

As to `CC1(C)CCC[C@@]2(C)C1CC[C@@]1(CO)O[C@H](C3=CC(=O)OC3O)C[C@H]12` (stereo not given in full), the TGI was 35.4 µM with NCI-H226 lung; 25.6 µM in the experiment with SK-MEL-28 melanoma; 36.2 µM in the experiment on OVCAR-8 ovarian; 32.3 µM in the experiment with SNB-19 CNS; 24.2 µM in the experiment with MALME-3M melanoma; 34.4 µM in the experiment with TK-10 renal. In addition, the TGI in the experiment with SN12C renal was determined as 26.6 µM; in the experiment with NCI-H23 lung it was 26.6 µM; in the experiment on MCF7 breast it was 26.7 µM; with 786-0 renal it was 38.6 µM.

Turning to `Cn1c2c(c3c(=O)[nH]ncc31)Cc1ccccc1-2`, the TGI with NCI-H226 lung is 61.9 µM; in the experiment with SK-MEL-28 melanoma it was 60.1 µM; in the experiment with OVCAR-8 ovarian, 62.8 µM; in the experiment with SNB-19 CNS it was over 100 µM; in the experiment on MALME-3M melanoma it was 44.5 µM; in the experiment with TK-10 renal it was 29.3 µM. The TGI in the experiment on SN12C renal was 47.9 µM; in the experiment on NCI-H23 lung it was over 100 µM; in the experiment on MCF7 breast, 56.5 µM; with 786-0 renal it was 51 µM.

Consider `CC1=NC(=N)N=C(C)C1N=Nc1ccc2nc(C)[nH]c2c1` (stereo not given), for which the TGI in the experiment on NCI-H226 lung, with SK-MEL-28 melanoma, in the experiment on OVCAR-8 ovarian, in the experiment with SNB-19 CNS, in the experiment on MALME-3M melanoma and in the experiment on TK-10 renal was over 100 µM each time. The TGI in the experiment on SN12C renal, in the experiment with NCI-H23 lung, in the experiment on MCF7 breast and with 786-0 renal was over 100 µM throughout.

Regarding `COCc1cc2c(s1)C(=O)C1=C(C2=O)C2(C=C(Br)C(=O)C(Br)=C2)CCN1`, the TGI in the experiment with NCI-H226 lung is 26.7 µM; in the experiment on SK-MEL-28 melanoma, 20.3 µM; with OVCAR-8 ovarian, 14.8 µM; in the experiment on SNB-19 CNS it was 35.5 µM; in the experiment on MALME-3M melanoma, 2.23 µM; in the experiment on TK-10 renal it was 32.4 µM. For the same compound, the TGI with SN12C renal is 20.4 µM; with NCI-H23 lung, 9.51 µM; with MCF7 breast it was 28.1 µM; with 786-0 renal it was 16.3 µM.

As to `CCNC(=S)N/N=C(/C)c1cccc(/C(C)=N\NC(=S)NCC)n1`, the TGI is 7.39 µM with NCI-H226 lung; over 100 µM in the experiment with SK-MEL-28 melanoma; 16.9 µM in the experiment on OVCAR-8 ovarian; over 100 µM with SNB-19 CNS; over 44.6 µM in the experiment with MALME-3M melanoma; 19.1 µM with TK-10 renal. Besides, the TGI is over 65.6 µM in the experiment with SN12C renal, 73.7 µM in the experiment on NCI-H23 lung, 31.2 µM in the experiment with MCF7 breast and over 100 µM with 786-0 renal.
